In patent US9593146B2, “CD44v6-derived peptides for treating metastasizing cancer” (AMCURE GMBH, priority 2012, dated 2017):

What was measured:
[1] = tested on: L3.6pl cells; assay: Human orthotopic model of pancreatic cancer, L3.6pl cells in nude mice; format: in vivo
[2] = tested on: VEGFR-2; assay: VEGF-A165 induced activation of VEGFR-2 and Erk in endothelial cells; format: cell-based, human; details: HUVEC, HAOEC and HCMEC
Procedure: FIG. 13: Activation of VEGFR-2 and signal transduction induced by VEGF-A165 depends on CD44v6. Different ECs (HUVEC, HAOEC and HCMEC) were serum starved and incubated with several reagents (αCD44v6, v6 14mer and the controls IgG and ctrl pep). The cells were then induced with VEGF-A165 and lysed. The cell lysates were loaded on SDS-PAGE and subjected to Western blot analysis. Activation of the receptor tyrosine kinase VEGFR-2 and of its downstream target Erk was detected by means of antibodies that detect phosphorylated forms of VEGFR-2 and Erk. The loading control was performed with antibodies recognising total VEGFR-2 and Erk levels. The numbers indicate the fold induction as calculated with the computer programme ImageJ.
In order investigate if an isoform of CD44 is necessary for VEGFR-2 activation, the three tools inhibiting CD44v6 activity were used in an experiment where VEGFR-2 was activated by VEGF-A165. As expected all ECs responded to VEGF-A165 treatment with VEGFR-2 phosphorylation and signal transduction to Erk. […] Thus CD44v6 is also necessary for a functional VEGF-A165/VEGFR-2 system in these cells.

[3] = tested on: Met; assay: HGF induced activation of Met and Erk in L3.6pl, HeLa and HT29 cells; format: cell-based, human; details: added before induction with HGF
Procedure: FIG. 14: A: Activation of Met and signal transduction induced by HGF depends on CD44v6 in L3.6pl cells. L3.6pl cells were treated with the human v6 peptide (human v6 14mer) or the rat v6 peptide as control prior to induction with 10 ng/ml HGF. Activation of Met and ERK was determined in western blot. The numbers refer to the fold induction. The experiment was repeated at least 5 times. B: Activation of c-Met and signal transduction induced by HGF depends on CD44v6 HeLa cells. Starved HeLa cells respectively HT29 cells were incubated with the v6 peptide (human v6 14mer) or a control peptide for 10 minutes at 37° C. and then induced with 25 ng/ml of HGF for the indicated time points. Cells were then either lysed and the lysates were subjected to Western Blot analysis for phospho-Met and Met. C: Activation of c-Met and signal transduction induced by HGF depends on CD44v6 in HT29 cells. HGF-induced c-Met and Erk phosphorylation in HT29 was determined as described above using phospho-specific antibodies. […]
The contribution of CD44v6 to Met signaling in the human epithelial pancreatic cancer cells L3.6pl (derived from Colo 357), the cervix carcinoma cells HeLa and the colon cancer cells HT29 were analysed using the CD44v6 peptide (v6 14mer; v6 5mer tested as well, data not shown).

[4] = tested on: HUVEC; assay: HUVEC spheroid sprouting assay; format: cell-based, human; details: 100 ng/ml peptide, VEGFs 40 ng/ml, 48 h
Procedure: FIG. 19: Spheroids of HUVECs (750 cells) were generated in hanging drops. They were suspended in Endothelial Cell Growth Medium containing 1 mg/ml rat tail collagen I and 0.6% (wt/vol) methylcellulose and distributed in 48-well plates (30 spheroids/well). After solidification at 37° C. the mixture was overlaid with Endothelial Cell Growth Medium containing 100 ng/ml v6 peptide (human v6 14mer) or control peptide and VEGFs (40 ng/ml). Pictures were taken 48 h later and sprouting was quantified with the computer program ImageJ.
Clusters of HUVEC cells, so-called spheroids, were generated in hanging drops and embedded in a three-dimensional collagen matrix. They were overlaid with medium containing the blocking substances and the growth factors. Activated by the growth factors VEGF-A165 and VEGF-A121 the ECs started to grow out of the spheroids (FIG. 19). […] Sprouting of the ECs was quantified by analysing the total length of all sprouts originating from one spheroid.

[5] = 20 μg i.p. three times per week for three weeks, start 7 days after implantation

Question: What does the source list for “KEQWFGNRWHEGYR [human 14mer, human CD44v6 14mer peptide]”?
Answer: metastatic spreading at 10 μg ([1]; 10 μg per injection, three times per week for 3 weeks): complete inhibition of metastatic spreading; tumor angiogenesis (vessel number and vessel size, CD31) ([1]; 20 μg i.p. three times per week for three weeks): decreased angiogenesis; Met activation in the tumor (phospho-Met immunofluorescence) [1, 5]: completely repressed Met activation; outgrowth of the primary tumor in the pancreas [1, 5]: strongly repressed; metastasis formation (liver) ([1]; 20 μg i.p. three times per week for three weeks, start 7 days after implantation, listed as SEQ ID No.: 6): capable of inhibiting metastasis; metastasis formation (liver) ([1]; 20 μg i.p. three times per week for three weeks, start 7 days after implantation, listed as human-specific peptide): completely inhibited metastasis formation within the liver; reduction of tumor size, ranking (side-by-side comparison) ([1]; 20 μg per injection three times per week for 3 weeks (FIG. 23A)): strongest reduction of tumor size; variability in the individual tumor size within the group ([1]; 20 μg per injection three times per week for 3 weeks (FIG. 23B)): low variability; metastatic spreading to the liver (side-by-side comparison) ([1]; 20 μg per injection three times per week for 3 weeks (FIG. 24)): complete inhibition of metastasis; tumor growth compared to the control peptide (side-by-side comparison) ([1]; 20 μg per injection three times per week for 3 weeks, 5 animals per group): significant reduction in tumor growth; liver metastases at 0.2 and 2 μg ([1]; 0.2 and 2 μg per injection, three times per week for 3 weeks): showed liver metastases but the average number of metastases per animal was reduced; size / growth of the primary tumor (dose reduction study) ([1]; three injections per week for 3 weeks, compared to control groups (FIG. 22C)): significant decrease of the size of the primary tumor; VEGFR-2 activation and downstream signaling to Erk induced by VEGF-A165 [2]: blocked VEGFR-2 activation and downstream signaling to Erk; activation of Met and of its downstream target Erk [3]: able to prevent activation of Met and of its downstream target Erk; sprouting in response to VEGF-A (VEGF-A165, VEGF-A121) [4]: blocked completely
